Experimental data as given in patent US20240150335A1, “FUSED RING DERIVATIVES CONTAINING 1,4-OXAZEPANE” (MEDSHINE DISCOVERY INC., priority 2021, published 2024).

Columns and labels:
[1] = target: Recombinant human cathepsin C/DPP1; test: Inhibition effect test of DPP1 enzyme activity; format: biochemical; conditions: recombinant human cathepsin C/DPP1, Gly-Arg-AMC substrate 12.5 μM, 25° C. 60 minutes; read-out: IC50, inhibitory activity on DPP1 enzyme
Method: Experimental Example 1: Inhibition Effect Test of DPP1 Enzyme Activity
Recombinant human cathepsin C/DPP1 was purchased from R&D Systems;
Recombinant human cathepsin L (rhCathepsin L) was purchased from R&D Systems;
Gly-Arg-AMC (hydrochloride) was purchased from CAYMAN CHEMICAL COMPANY.
1× activation buffer: 5 mM DTT 0.01% (V/V) Triton X-100 (preparation for current use);
1× assay buffer: 50 mM NaCl 5 mM DTT 0.01% (V/V) Triton X-100 (preparation for current use);
1× activation buffer was used to dilute recombinant human cathepsin C/DPP1 enzyme and recombinant human cathepsin L (rhCathepsin L) enzyme to concentrations of 2 ng/μL and 0.4 ng/μL, respectively; equal volume of two working solutions of enzyme was taken, mixed well and incubated at 25° C. for 60 minutes;
the compounds to be tested were 5-fold diluted with a multi-channel pipette to the 8th concentration, i.e., diluted from 1 mM to 12.8 nM. Then 1× experimental buffer was used to dilute each compound to be tested by gradient into a 4% DMSO working solution. The working solution was added to corresponding wells for 5 μL/well, and duplicate experiment was set. The mixture was centrifuged at 1000 rpm for 1 minute;
5 μL/well of the enzyme mixture after incubation was taken and added to the white microwell plate. At this time, the amount of DPP1 enzyme in each well was 5 ng; 1× experimental buffer in 5 μL/well was added to the blank control well;
Gly-Arg-AMC (hydrochloride) was diluted to 25 μM with 1× assay buffer. The diluted mixture in 10 μL/well was added to a white microwell plate. The substrate concentration was 12.5 μM at this time, and the microplate was centrifuged in a centrifuge at 1000 rpm for 1 minute. […] After centrifugation, the microplate was covered with membrane and incubated at 25° C. for 60 minutes;
after incubation, fluorescence detection was performed using a multi-label analyzer with an excitation wavelength of 360 nm and an emission wavelength of 460 nm.
Using the equation (Sample−Min)/(Max−Min)×100% to convert the raw data into enzyme activity, the IC50 value might be obtained by curve fitting with four parameters (obtained by “log (inhibitor) vs. response—Variable slope” mode in GraphPad Prism).
Max: Contains recombinant human cathepsin C/DPP1, recombinant human cathepsin L (rhCathepsin L), and Gly-Arg-AMC (hydrochloride)
Min: No recombinant human cathepsin C/DPP1 and recombinant human cathepsin L (rhCathepsin L)

[2] = target: DPP1 of U937 cells (Homo sapiens (Human), UniProt P53634); test: Activity test of inhibiting DPP1 in U937 cells; format: cell-based; conditions: Gly-Phe-AFC probe, read-out: IC50, inhibitory activity on DPP1 of U937 cells
Method: Experimental Example 2: Activity Test of Inhibiting DPP1 in U937 Cells
Experimental Materials: • 1) Experimental reagents and consumables
The cell plate was placed in a carbon dioxide incubator for 1 day; • (3) after incubation for 1 hour, 100 μM Gly-Phe-AFC probe solution was added thereto, that is, 60 mM Gly-Phe-AFC probe stock solution was diluted with culture medium to 500 μM working solution; the working solution in 10 μL per well was transferred into the cell plate, and the cell plate was incubated in a carbon dioxide incubator for 1 hour;
3) the plate was read, and the data were analyzed: • (1) plate reading: after the cell incubation was completed, the cell plate was taken out, and the plate was read on Victor Nivo.
Using the equation (Sample−Min)/(Max−Min)×100% to convert the raw data into inhibition rate, the IC50 value might be obtained by curve fitting with four parameters (obtained by “log (inhibitor) vs. response—Variable slope” mode in GraphPad Prism).

DPP1 of U937 cells, sequence (P53634 25-134): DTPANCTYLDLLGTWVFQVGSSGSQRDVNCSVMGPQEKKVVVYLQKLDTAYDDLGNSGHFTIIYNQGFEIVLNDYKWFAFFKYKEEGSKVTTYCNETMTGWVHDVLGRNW
DPP1 of U937 cells, sequence (P53634 231-394): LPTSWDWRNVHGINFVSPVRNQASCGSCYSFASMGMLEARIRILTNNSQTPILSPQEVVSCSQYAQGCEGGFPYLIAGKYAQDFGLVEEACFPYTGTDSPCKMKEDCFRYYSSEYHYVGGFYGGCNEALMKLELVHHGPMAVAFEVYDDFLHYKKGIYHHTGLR
DPP1 of U937 cells, sequence (P53634 395-463): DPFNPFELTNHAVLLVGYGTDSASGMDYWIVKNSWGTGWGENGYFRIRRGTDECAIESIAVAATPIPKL

Structure (SMILES)	IC50 [1]	IC50 [2]
Cn1nnc2ccc(-c3ccc(C[C@@H](C#N)NC(=O)[C@@H]4CNCCCO4)c(F)c3)cc21 [Compound 7]	2.52 nM	2.49 nM
CN1CCOc2ccc(-c3ccc(C[C@H](C#N)NC(=O)[C@@H]4CNCCCO4)c(F)c3)cc21 [Compound 15]	3.65 nM	–
N#C[C@@H](Cc1ccc(-c2ccc3cnn(C4CCNCC4)c3c2)cc1F)NC(=O)[C@@H]1CNCCCO1 [Compound 22]	0.76 nM	–
N#C[C@H](Cc1ccc(-c2ccc3nccn3c2)cc1F)NC(=O)[C@@H]1CNCCCO1 [Compound 13]	20.4 nM	6.33 nM
N#C[C@H](Cc1ccc(-c2ccc3cnn(C4CCOCC4)c3c2)cc1F)NC(=O)[C@@H]1CNCCCO1 [Compound 12]	2.38 nM	1.81 nM
N#C[C@@H](Cc1ccc(-c2cc(F)c3cn[nH]c3c2)cc1F)NC(=O)[C@@H]1CNCCCO1 [Compound 19]	4.55 nM	8.7 nM
CC(C)n1ncc2ccc(-c3ccc(C[C@@H](C#N)NC(=O)[C@@H]4CNCCCO4)cc3)cc21 [Compound 9]	14 nM	–
Cn1ncc2ccc(-c3ccc(C[C@@H](C#N)NC(=O)[C@@H]4CNCCCO4)cc3)cc21 [Compound 2]	26.8 nM	8.95 nM
N#C[C@@H](Cc1ccc(-c2ccc3nccn3c2)cc1F)NC(=O)[C@@H]1CNCCCO1 [Compound 14]	28.1 nM	2.79 nM
Cc1cc(-c2ccc3cnn(C)c3c2)ccc1C[C@H](C#N)NC(=O)[C@@H]1CNCCCO1 [Compound 17]	22.5 nM	–
CC(C)n1ncc2ccc(-c3ccc(C[C@@H](C#N)NC(=O)[C@@H]4CNCCCO4)c(F)c3)cc21 [Compound 10]	4.39 nM	8.53 nM
Cn1ncc2ccc(-c3ccc(C[C@H](C#N)NC(=O)[C@@H]4CNCCCO4)c(Cl)c3)cc21 [Compound 16]	9.18 nM	–
CN1CCC(n2ncc3ccc(-c4ccc(C[C@H](C#N)NC(=O)[C@@H]5CNCCCO5)c(F)c4)cc32)CC1 [Compound 24]	1 nM	3.12 nM
Cn1nc(F)c2ccc(-c3ccc(C[C@H](C#N)NC(=O)[C@@H]4CNCCCO4)c(F)c3)cc21 [Compound 18]	1.23 nM	5.43 nM
Cn1nnc2ccc(-c3ccc(C[C@@H](C#N)NC(=O)[C@@H]4CNCCCO4)cc3)cc21 [Compound 4]	10.8 nM	1.32 nM
N#C[C@@H](Cc1ccc(-c2cnc3cc[nH]c3c2)cc1F)NC(=O)[C@@H]1CNCCCO1 [Compound 21]	17.3 nM	9.27 nM
CN1Cc2cc(-c3ccc(C[C@@H](C#N)NC(=O)[C@@H]4CNCCCO4)cc3)ccc2C1=O [Compound 5]	28.3 nM	9.32 nM
